Publication PMC10052977, “α,ω-Diacyl-Substituted Analogues of Natural and Unnatural Polyamines: Identification of Potent Bactericides That Selectively Target Bacterial Membranes” (International Journal of Molecular Sciences, 2023)
In brackets after ≈: the same amount, converted by molar mass.

Legend:
[1] = system: MRSA ATCC 43300; test: MIC, CO-ADD broth microdilution; type: cell-based, Staphylococcus aureus; conditions: Staphylococcus aureus; MRSA ATCC 43300; mean (n = 2); read-out: MIC MRSA
[2] = system: Pseudomonas aeruginosa PAO1 or ATCC 27853; test: MIC, broth dilution (CA-SFM); type: cell-based; conditions: mean (n = 3)
[3] = system: Acinetobacter baumannii ATCC19606; test: MIC, CO-ADD broth microdilution; type: cell-based; conditions: mean (n = 2)
[4] = system: Candida albicans ATCC90028; test: Antifungal MIC, CO-ADD; type: cell-based; conditions: mean (n = 2)
How it was run: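 Yeast from 3-day YPD cultures was diluted in YNB broth to a final 2.5 × 10^3 CFU/mL and incubated at 35 °C for 36 h without shaking. C. albicans MICs were read by OD530 absorbance. QC used fluconazole and Z'-factor controls.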

[5] = system: Cryptococcus neoformans ATCC208821; test: Antifungal MIC, CO-ADD; type: cell-based; conditions: ATCC208821, Cryptococcus neoformans ATCC208821, mean (n = 2)
How it was run: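 Fungal strains were grown on YPD agar at 30 °C for 3 days. Five colonies were used to make a yeast suspension of 1 × 10^6 to 5 × 10^6 CFU/mL, which was diluted in yeast nitrogen base (YNB) broth to 2.5 × 10^3 CFU/mL. Covered plates were incubated without shaking at 35 °C for 36 h. Fluconazole was the positive control, and quality was judged from antimicrobial controls and the Z'-factor.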

[6] = system: Escherichia coli ATCC 25922; test: MIC, CO-ADD broth microdilution; type: cell-based; conditions: ATCC25922, mean (n = 2)
[7] = system: Staphylococcus aureus ATCC 25923 or ATCC 29213; test: MIC, broth dilution (CA-SFM); type: cell-based; conditions: Staphylococcus aureus ATCC 25923 or ATCC 29213; mean (n = 3); read-out: MIC S. a
[8] = Cytotoxicity assay (resazurin); type: cell-based, human; conditions: human; HEK293 cells; mean (n = 2); highest dose tested 32 μg/mL; read-out: Cytotoxicity (concentration of compound at 50% cytotoxicity, IC50)
[9] = system: human red blood cells; test: Hemolytic assay; type: cell-based; conditions: mean (n = 2)
How it was run: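 Washed human erythrocytes at 0.5 × 10^8 cells/mL in 0.9% NaCl, shaken 10 min with compound, then held 1 h at 37 °C. Released hemoglobin in supernatant after centrifugation read at OD405; HC10 and HC50 from variable-slope sigmoidal fit against log concentration.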

[10] = system: Klebsiella pneumoniae ATCC700603; test: MIC, CO-ADD broth microdilution; type: cell-based; conditions: mean (n = 2)

SMILES	MIC [1] [µM]	MIC [2] [µM]	MIC [3] [µM]	MIC [4] [µM]	MIC [5] [µM]	melting point [°C]	MIC [6] [µM]	MIC [7] [µM]	MIC [10] [µM]	MIC ([3]; 18 h) [µM]	IC50 at 20 h [8] [µM]	Hemolysis (HC10, concentration at 10% hemolytic activity) [9] [µM]
Cl.Cl.S=C(NCCCNCCCCCCCNCCCNC(=S)NC(c1ccccc1)c1ccccc1)NC(c1ccccc1)c1ccccc1 [Compound 6c, N^1,N^7-Bis(3-(3-benzhydrylthioureido)propyl)heptane-1,7-diaminium chloride]	≤ 0.33	> 260	2.6	≤ 0.33	0.65	115 to 116	≤ 0.33	65	> 41.7		> 41.7	≤0.326
O=C(O)CCC(=O)NCCC(c1ccccc1)c1ccccc1 [Compound 10, 4-((3,3-diphenylpropyl)amino)-4-oxobutanoic acid]						134 to 137						
Cl.Cl.S=C(NCCCNCCCCCCCCCCCCNCCCNC(=S)NC(c1ccccc1)c1ccccc1)NC(c1ccccc1)c1ccccc1 [Compound 6f, N^1,N^12-Bis(3-(3-benzhydrylthioureido)propyl)dodecane-1,12-diaminium chloride]	≤ 0.3	120	> 38.2	≤ 0.3	> 38.2	103 to 104	2.4	> 239	> 38.2		≤ 0.298	>38.2
Cl.Cl.S=C(NCCCNCCCCNCCCNC(=S)NC(c1ccccc1)c1ccccc1)NC(c1ccccc1)c1ccccc1 [Compound 6a, N^1,N^4-Bis(3-(3-benzhydrylthioureido)propyl)butane-1,4-diaminium chloride]	≤ 0.34	138		≤ 0.34	11	168 to 169	2.8	> 276	> 44.1	≤ 0.35	> 44.1	7.73
O=C(O)CCC(=O)NCCCc1ccccc1 [Compound 8, 4-oxo-4-((3-phenylpropyl)amino)butanoic acid]						94 to 95						
Cl.Cl.S=C(NCCCNCCCCCCCCNCCCNC(=S)NC(c1ccccc1)c1ccccc1)NC(c1ccccc1)c1ccccc1 [Compound 6d, N^1,N^8-Bis(3-(3-benzhydrylthioureido)propyl)octane-1,8-diaminium chloride]	≤ 0.32	100	5.1	≤ 0.32	20.5	113 to 115	≤ 0.32	6.25	40.9		10.1	2.07

Now from value to compound, other results behind:

MIC [1] [µM]	MIC [2] [µM]	MIC [3] [µM]	MIC [4] [µM]	MIC [5] [µM]	melting point [°C]	MIC [6] [µM]	MIC [7] [µM]	MIC [10] [µM]	MIC ([3]; 18 h) [µM]	SMILES	IC50 at 20 h [8] [µM]	Hemolysis (HC10, concentration at 10% hemolytic activity) [9] [µM]
≤ 0.23	200	29.1	29.1	≤ 0.28		14.5	12.5	29.1		O=C(CCC(=O)NCCC(c1ccccc1)c1ccccc1)NCCCNCCCCCCCCCCNCCCNC(=O)CCC(=O)NCCC(c1ccccc1)c1ccccc1.O=C(O)C(F)(F)F.O=C(O)C(F)(F)F [Compound 16e, N^1,N^10-Bis(3-(4-((3,3-diphenylpropyl)amino)-4-oxobutanamido)propyl)decane-1,10-diaminium 2,2,2-trifluoroacetate]	17.3	17.9
< 0.25	25	4	8	32		0.5	3.12	32		O=C(CC(c1ccccc1)(c1ccccc1)c1ccccc1)NCCCNCCCCNCCCNC(=O)CC(c1ccccc1)(c1ccccc1)c1ccccc1.O=C(O)C(F)(F)F.O=C(O)C(F)(F)F [Compound 18a, N^1,N^4-Bis(3-(3,3,3-triphenylpropanamido)propyl)butane-1,4-diaminium 2,2,2-trifluoroacetate]	18.3	1.58
< 0.23	300	> 30.3	> 30.3	< 0.23		< 0.23	3.12	> 30.3		O=C(NCCCNCCCCCCCCCCNCCCNC(=O)C(c1ccccc1)(c1ccccc1)c1ccccc1)C(c1ccccc1)(c1ccccc1)c1ccccc1.O=C(O)C(F)(F)F.O=C(O)C(F)(F)F [Compound 17e, N^1,N^10-Bis(3-(2,2,2-triphenylacetamido)propyl)decane-1,10-diaminium 2,2,2-trifluoroacetate]	> 30.3	≤0.234
< 0.24	100	1.92	3.84	30.7		3.84	1.56	30.7		O=C(CC(c1ccccc1)(c1ccccc1)c1ccccc1)NCCCNCCCCCCCNCCCNC(=O)CC(c1ccccc1)(c1ccccc1)c1ccccc1.O=C(O)C(F)(F)F.O=C(O)C(F)(F)F [Compound 18c, N^1,N^7-Bis(3-(3,3,3-triphenylpropanamido)propyl)heptane-1,7-diaminium 2,2,2-trifluoroacetate]	13.2	3.12
< 0.26	300	8.24	> 33	< 0.26		1.03	6.25	> 33		O=C(NCCCNCCCCNCCCNC(=O)C(c1ccccc1)(c1ccccc1)c1ccccc1)C(c1ccccc1)(c1ccccc1)c1ccccc1.O=C(O)C(F)(F)F.O=C(O)C(F)(F)F [Compound 17a, N^1,N^4-Bis(3-(2,2,2-triphenylacetamido)propyl)butane-1,4-diaminium 2,2,2-trifluoroacetate]	0.329	5.57
< 0.24	300	7.79	15.6	< 0.24		15.6	6.25	> 31.2		O=C(NCCCNCCCCCCCCNCCCNC(=O)C(c1ccccc1)(c1ccccc1)c1ccccc1)C(c1ccccc1)(c1ccccc1)c1ccccc1.O=C(O)C(F)(F)F.O=C(O)C(F)(F)F [Compound 17d, N^1,N^8-Bis(3-(2,2,2-triphenylacetamido)propyl)octane-1,8-diaminium 2,2,2-trifluoroacetate]	≤ 0.243	0.719
> 43.4	> 271	> 43.4	> 43.4	> 43.4		> 43.4	> 271	> 43.4		O=C(CCc1ccccc1)NCCCNCCCCCCCNCCCNC(=O)CCc1ccccc1.O=C(O)C(F)(F)F.O=C(O)C(F)(F)F [Compound 13c, N^1,N^7-Bis(3-(3-phenylpropanamido)propyl)heptane-1,7-diaminium 2,2,2-trifluoroacetate]	> 43.4	>43.4
> 37	> 200	> 37	> 37	> 37		> 37	100	> 37		O=C(CCC(=O)NCCCc1ccccc1)NCCCNCCCCNCCCNC(=O)CCC(=O)NCCCc1ccccc1.O=C(O)C(F)(F)F.O=C(O)C(F)(F)F [Compound 14a, N^1,N^4-Bis(3-(4-oxo-4-((3-phenylpropyl)amino)butanamido)propyl)butane-1,4-diaminium 2,2,2-trifluoroacetate]	> 37	>37
≤ 0.24	480 (≈ 392 µg/mL)	> 30.6	> 30.6	> 30.6		> 30.6	24 (≈ 19.6 µg/mL)	> 30.6		O=C(CCC(=O)NCCC(c1ccccc1)c1ccccc1)NCCCNCCCCCCNCCCNC(=O)CCC(=O)NCCC(c1ccccc1)c1ccccc1 [Compound 16b, N^1,N^6-Bis(3-(4-((3,3-diphenylpropyl)amino)-4-oxobutanamido)propyl)hexane-1,6-diaminium 2,2,2-trifluroracetate]	> 30.6	>30.6
